Tested on: C2C12-derived myotubes
Test: Mitochondrial calcium rise (mitochondrial aequorin) in caffeine-stimulated C2C12-derived myotubes
Format: cell-based, mouse
Conditions: evoked by 5 mM caffeine, vs 0.5 mM calcium in the medium
From the text: To test the effect of Oleuropein, its metabolites and calcium supplementation/deficiency in living cells, the inventors measured mitochondrial calcium elevation in HeLa cells and in myotubes differentiated from both mouse C2C12 cells and human primary adult muscle cells. HeLa cells and C2C12 cells were purchased from ATCC. Human Skeletal Muscle Myoblasts (HSMM) were purchased from Lonza. HSMM were isolated from the upper arm or leg muscle tissue of normal donors and used after the second passage. HeLa cells were seeded in 96-well plates at a density of 50000 cells per well in minimal essential medium (DMEM, Gibco), high glucose, +10% fetal calf serum. C2C12 cells were seeded in 96-well plates at a density of 8000 cells per well in DMEM high glucose (Gibco)+10% fetal calf serum. Myotubes were differentiated from C2C12 cells by growing the cells in DMEM containing 2% horse serum, for 4 days. HSMM were seeded in 96-well plates at a density of 8000 cells per well in DMEM/F-12 (Gibco). […]
For treatment, compounds were directly added to the cell culture or myotubes cultures 2 hours before measurements. Luminescence was measured at the Cytation 3 cell imaging reader (Biotek) or at the FLIPR Tetra Aequorin (Molecular Devices). […] Custom module analysis based on Excel (Microsoft) and GhaphPad Prism 7.02 (GraphPad) software was used for quantification.

[Ca+2] [calcium]
integrated mitochondrial calcium rise, effect of extracellular calcium abundance (P<0.05, listed as Ca^2+): activates mitochondrial Ca^2+ elevation in a dose/response manner | integrated mitochondrial calcium rise, effect of extracellular calcium abundance (P<0.05, listed as Ca′): enhances mitochondrial Ca′ elevation in a dose/response manner
